Peptide text beside a SMILES is read from it.
Columns and labels:
Conditions in all cases: 5 h incubation, n=3 average
[1] = test system: mammary cancer cell line (MDA-MB-231); assay: Anti-tumor activity test, cell survival rate (WST-8); format: cell-based, human
Protocol: (§1) For any one of each sample peptide synthesized in the above Test Example 1, an anti-tumor activity was evaluated by having various kinds of cultured tumor cells as a subject.
(§2) Specifically, as a tumor cell for test, cultured mammary cancer cell line (MCF-7), cultured mammary cancer cell line (MDA-MB-231), cultured pancreatic cancer cell line (MIA PaCa-2), cultured prostate cancer cell line (PC-3), and cultured prostate cancer cell line (DU-145), which are currently available on the market, were used. Furthermore, as a subject for comparison, commercially available cultured cell line of normal human mammary epithelial cells was used. Details of the test are described below.
(§3) Namely, those cell lines were cultured in advance in DMEM medium (that is, Dulbecco's MEM medium (DMEM medium: product of Gibco) containing 10% fetal bovine serum (FBS: product of Gibco), 2 mM L-glutamine, 50 unit/mL penicillin, and 50 μg/mL of streptomycin), and adjusted such that the number of cells per well of a 96-hole (well) plate is about 1×10^4. The medium amount was 100 μL per well.
(§4) Subsequently, the 96-hole (well) plate was kept in a CO2 incubator and pre-incubation was carried out for about 1 day (22 hours to 23 hours) at conditions of 37° C., 5% CO2.
(§5) After that, a test medium containing the peptide at each concentration was prepared such that the peptide concentration in any sample to be an evaluation subject is any one of 3.13 μM, 6.25 μM, 12.5 μM, 25 μM, 50 μM, and 100 μM. Then, the test medium was supplied, in an amount of 90 μL per well, to a well in which the cells as an evaluation subject have been cultured (that is, well after the above pre-incubation). In addition, the 96-hole (well) plate was returned to the CO2 incubator and incubated for 5 hours at conditions of 37° C., 5% CO2.
(§6) Furthermore, number (n) of the test wells for the test group added with each peptide at each peptide concentration was all set at 3. Thus, the result values shown in the following table correspond to an average value of the results which have been obtained from each of test well number of 3. Cell survival rate (%) was determined as described below.
(§7) Upon completion of the incubation for 5 hours described above, the medium in each well was replaced with 100 μL of fresh medium not containing the peptide. Furthermore, “Cell Counting Kit-8” (product of Dojindo Laboratories) containing as a chromogenic reagent “Aqueous tetrazolium salt (WST-8)”, which is a reagent for measuring cell proliferation, was added in an amount of 10 μL to each well. After that, the 96-hole (well) plate was returned to the CO2 incubator and incubated for 1.5 hours at conditions of 37° C. 5% CO2.
(§8) Upon completion of the incubation, the cell culture solution added with the above reagent was recovered, and simultaneously, according to colorimetry by which absorbance at wavelength of 450 nm based on reduction of tetrazolium salt (value calibrated with absorbance at wavelength of 650 nm: A450-A650), the cell survival rate (%) was evaluated.

[2] = test system: normal human mammary epithelial cells; assay: Cell survival rate test (WST-8, Cell Counting Kit-8) on normal cells for comparison; format: cell-based
Protocol: as §1, §2, §3, §4, §5, §6, §7, §8

[3] = test system: prostate cancer cell line (DU-145); assay: Anti-tumor activity test, cell survival rate (WST-8); format: cell-based, human
Protocol: as §1, §2, §3, §4, §5, §6, §7, §8

[4] = test system: pancreatic cancer cell line (MIA PaCa-2); assay: as above; format: cell-based, human
Protocol: as §1, §2, §3, §4, §5, §6, §7, §8

[5] = test system: prostate cancer cell line (PC-3); assay: as above; format: cell-based, human
Protocol: as §1, §2, §3, §4, §5, §6, §7, §8

[6] = test system: mammary cancer cell line (MCF-7); assay: as above; format: cell-based, human
Protocol: as §1, §2, §3, §4, §5, §6, §7, §8

Row | Compound | Cell survival rate (%) ([1]; peptide 3.13 μM) | Cell survival rate (%) ([1]; peptide 50 μM) | Cell survival rate (%) ([2]; peptide 12.5 μM) | Cell survival rate (%) ([2]; peptide 25 μM) | Cell survival rate (%) ([2]; peptide 50 μM) | Cell survival rate (%) ([2]; peptide 100 μM) | Cell survival rate (%) ([3]; peptide 12.5 μM) | Cell survival rate (%) ([3]; peptide 25 μM) | Cell survival rate (%) ([3]; peptide 50 μM) | Cell survival rate (%) ([3]; peptide 100 μM) | Cell survival rate (%) ([4]; peptide 12.5 μM) | Cell survival rate (%) ([4]; peptide 25 μM) | Cell survival rate (%) ([4]; peptide 50 μM) | Cell survival rate (%) ([4]; peptide 100 μM) | Cell survival rate (%) ([1]; peptide 12.5 μM) | Cell survival rate (%) ([1]; peptide 25 μM) | Cell survival rate (%) ([1]; peptide 100 μM) | Cell survival rate (%) ([5]; peptide 12.5 μM) | Cell survival rate (%) ([5]; peptide 25 μM) | Cell survival rate (%) ([5]; peptide 50 μM) | other results
1 | CC[C@H](C)[C@H](NC(=O)[C@H](C)NC(=O)[C@H](CO)NC(=O)[C@@H](NC(=O)[C@H](CC(C)C)NC(=O)[C@H](Cc1ccccc1)NC(=O)[C@H](CO)NC(=O)[C@H](Cc1c[nH]c2ccccc12)NC(=O)[C@H](CCC(N)=O)NC(=O)[C@@H](NC(=O)[C@@H]1CCCN1)C(C)C)C(C)C)C(=O)N[C@@H](C)C(=O)NCC(=O)N[C@@H](CO)C(=O)N[C@H](C(=O)N[C@@H](C)C(=O)N[C@@H](CO)C(=O)N[C@@H](Cc1ccc(O)cc1)C(=O)N[C@@H](CCCNC(=N)N)C(=O)N[C@H](C(=O)N[C@@H](Cc1c[nH]c2ccccc12)C(=O)N[C@@H](CCCNC(=N)N)C(=O)N[C@@H](CCCNC(=N)N)C(=O)N[C@@H](CCC(N)=O)C(=O)N[C@@H](C)C(=O)N[C@@H](CCCNC(=N)N)C(=O)N[C@@H](Cc1ccccc1)C(=O)N[C@@H](CCCCN)C(N)=O)C(C)C)C(C)C [Sample 11] (H-PVQWSFLVSAIAGSVASYRVWRRQARFK-NH2; N-terminus assumed) | 101 | 77 |  |  |  |  |  |  |  |  |  |  |  |  |  |  |  |  |  |  | 
2 | CC[C@H](C)[C@H](NC(=O)CNC(=O)[C@H](CC(C)C)NC(=O)[C@H](CC(C)C)NC(=O)[C@H](Cc1ccccc1)NC(=O)[C@@H](NC(=O)CNC(=O)[C@@H](NC(=O)CNC(=O)[C@H](CCCCN)NC(=O)[C@@H](N)CCSC)[C@@H](C)O)[C@@H](C)O)C(=O)N[C@@H](C)C(=O)NCC(=O)N[C@@H](CC(C)C)C(=O)N[C@@H](Cc1ccccc1)C(=O)N[C@H](C(=O)N[C@@H](CC(C)C)C(=O)N[C@@H](CCC(N)=O)C(=O)N[C@@H](CCCCN)C(=O)N[C@H](C(=O)N[C@H](C(=O)N[C@@H](CCC(N)=O)C(=O)N[C@@H](CCCNC(=N)N)C(=O)N[C@@H](CCCNC(=N)N)C(=O)N[C@@H](CCCNC(=N)N)C(=O)N[C@@H](CCCNC(=N)N)C(=O)N[C@@H](CCCNC(=N)N)C(=O)N[C@@H](CCCNC(=N)N)C(=O)N[C@@H](CCCNC(=N)N)C(=O)N[C@@H](CCCNC(=N)N)C(=O)N[C@@H](CCCNC(=N)N)C(N)=O)[C@@H](C)CC)C(C)C)[C@@H](C)O [Sample 2] (H-MKGTGTFLLGIAGLFTLQKVIQRRRRRRRRR-NH2; N-terminus assumed) |  | 52.6 | 88.3 | 82.1 | 56.1 | 42.7 | 86.2 | 75.2 | 41.2 | 16.4 | 94.4 | 91.3 | 36.7 | 7 | 80 | 69.7 | 44.3 | 101.1 | 80.9 | 45.2 | Cell survival rate (%) ([5]; peptide 100 μM): 42.6%; Cell survival rate (%) ([6]; peptide 12.5 μM): 75.7%; Cell survival rate (%) ([6]; peptide 25 μM): 49.1%; Cell survival rate (%) ([6]; peptide 50 μM): 20.2%; Cell survival rate (%) ([6]; peptide 100 μM): 17.6%
3 | CC[C@H](C)[C@H](NC(=O)[C@H](CO)NC(=O)[C@@H](NC(=O)[C@H](CC(C)C)NC(=O)[C@H](CC(C)C)NC(=O)[C@H](CC(N)=O)NC(=O)[C@H](Cc1c[nH]c2ccccc12)NC(=O)[C@H](CCC(N)=O)NC(=O)[C@H](CC(C)C)NC(=O)[C@@H]1CCCN1C(=O)[C@@H](N)Cc1ccc(O)cc1)[C@@H](C)CC)C(=O)N[C@@H](CC(C)C)C(=O)N[C@@H](C)C(=O)N[C@@H](CO)C(=O)N[C@@H](CO)C(=O)N[C@H](C(=O)NCC(=O)N[C@@H](CO)C(=O)N[C@@H](Cc1ccc(O)cc1)C(=O)N[C@@H](C)C(=O)N[C@H](C(=O)N[C@@H](CCCCN)C(=O)N[C@@H](CCCCN)C(=O)N[C@@H](CCCNC(=N)N)C(=O)N[C@H](C(=O)N[C@@H](CC(C)C)C(=O)N[C@@H](CCCNC(=N)N)C(=O)N[C@@H](CCCCN)C(=O)N[C@@H](CC(N)=O)C(=O)N[C@@H](CC(=O)O)C(=O)N[C@@H](CCCNC(=N)N)C(=O)N[C@@H](CCCCN)C(=O)N[C@@H](CCCCN)C(=O)N[C@@H](CCCNC(=N)N)C(N)=O)[C@@H](C)O)C(C)C)C(C)C [Sample 3] (H-YPLQWNLLISILASSVGSYAVKKRTLRKNDRKKR-NH2; N-terminus assumed) |  | 54.5 | 83.6 | 71.6 | 81.5 | 74.8 | 78.6 | 73.7 | 49.3 | 37.5 | 101.4 | 93.8 | 88.5 | 45.6 | 77.9 | 65.7 | 45 | 64.6 | 66.5 | 62.5 | Cell survival rate (%) ([5]; peptide 100 μM): 47%; Cell survival rate (%) ([6]; peptide 12.5 μM): 79.3%; Cell survival rate (%) ([6]; peptide 25 μM): 71.8%; Cell survival rate (%) ([6]; peptide 50 μM): 50%; Cell survival rate (%) ([6]; peptide 100 μM): 32.8%
4 | CC[C@H](C)[C@H](NC(=O)[C@H](CO)NC(=O)[C@@H](NC(=O)[C@H](Cc1ccccc1)NC(=O)[C@H](CC(C)C)NC(=O)[C@H](CC(N)=O)NC(=O)[C@H](Cc1c[nH]c2ccccc12)NC(=O)[C@H](CCC(N)=O)NC(=O)[C@@H](N)CC(C)C)C(C)C)C(=O)N[C@H](C(=O)N[C@@H](CO)C(=O)N[C@@H](CO)C(=O)N[C@@H](CO)C(=O)N[C@H](C(=O)N[C@@H](Cc1ccccc1)C(=O)N[C@@H](CO)C(=O)N[C@@H](Cc1ccc(O)cc1)C(=O)N[C@@H](CO)C(=O)N[C@H](C(=O)N[C@@H](Cc1c[nH]c2ccccc12)C(=O)N[C@@H](CCCNC(=N)N)C(=O)N[C@@H](CCCNC(=N)N)C(=O)N[C@@H](CCC(N)=O)C(=O)N[C@@H](C)C(=O)N[C@@H](CCCNC(=N)N)C(=O)N[C@@H](Cc1ccccc1)C(=O)N[C@@H](CCCCN)C(N)=O)C(C)C)C(C)C)C(C)C [Sample 9] (H-LQWNLFVSIVSSSVFSYSVWRRQARFK-NH2; N-terminus assumed) | 99 | 73 |  |  |  |  |  |  |  |  |  |  |  |  |  |  |  |  |  |  | 
5 | CC[C@H](C)[C@H](NC(=O)CNC(=O)[C@@H](NC(=O)[C@@H](NC(=O)CNC(=O)[C@H](CC(C)C)NC(=O)[C@@H](NC(=O)[C@H](Cc1ccccc1)NC(=O)[C@H](CO)NC(=O)[C@H](C)NC(=O)[C@@H](NC(=O)CNC(=O)[C@H](CCCCN)NC(=O)[C@H](CCSC)NC(=O)[C@H](Cc1ccccc1)NC(=O)[C@H](C)NC(=O)[C@@H](N)Cc1ccc(O)cc1)[C@@H](C)O)[C@@H](C)CC)[C@@H](C)O)C(C)C)C(=O)N[C@@H](Cc1ccccc1)C(=O)N[C@@H](Cc1ccccc1)C(=O)NCC(=O)N[C@@H](Cc1c[nH]c2ccccc12)C(=O)N[C@@H](CCCNC(=N)N)C(=O)N[C@@H](CCCNC(=N)N)C(=O)N[C@@H](CCC(N)=O)C(=O)N[C@@H](C)C(=O)N[C@@H](CCCNC(=N)N)C(=O)N[C@@H](Cc1ccccc1)C(=O)N[C@@H](CCCCN)C(N)=O [Sample 8] (H-YAFMKGTASFILGTVGIFFGWRRQARFK-NH2; N-terminus assumed) | 99 | 76 |  |  |  |  |  |  |  |  |  |  |  |  |  |  |  |  |  |  | 
